Earlier results, collected in article PMC7904743, “WIDOCK: a reactive docking protocol for virtual screening of covalent inhibitors” (Journal of Computer-Aided Molecular Design, 2021).
Like-named read-outs stand apart in the source and are kept apart here.

Assays:
[1] = system: OTUB2; conditions: experimental actives if % labeling higher than 50%; cited from earlier work
[2] = system: NUDT7; conditions: protein labeling at 200 μM; experimental actives if % labeling higher than 50%; cited from earlier work
[3] = thiol reactivity, cited from earlier work
[4] = natural log of average rate constant k
[5] = natural logarithm of average rate constant

Row | Structure (SMILES) | OTUB2 % labeling [1] | NUDT7 % labeling [2] | ln(avg k) [3, 4] | ln(avg k) [3, 5]
1 | Cc1sc(NC(=O)CCl)c(C#N)c1C [PCM-0102202, Cc1sc(NC(=O)CCl)c(C#N)c1C] | 0% | 0% | -15.804 | -15.804
2 | NC(=O)C1CCCCN1C(=O)CCl (centres unmarked) [PCM-0102203, NC(=O)C1CCCCN1C(=O)CCl] | 0% | 0% | -15.988 | -15.988
3 | COC(=O)c1ccc(NC(=O)CCl)cc1 [PCM-0102204, COC(=O)c1ccc(NC(=O)CCl)cc1] | 0% | 0% | -15.628 | -15.628
4 | CC1Cc2cc(S(N)(=O)=O)ccc2N1C(=O)CCl (centres unmarked) [PCM-0102207, CC1Cc2cc(S(N)(=O)=O)ccc2N1C(=O)CCl] | 0% | 7% | -15.427 | -15.427
5 | Cc1ccc(NC(=O)CCl)cc1Cl [PCM-0102208, Cc1ccc(NC(=O)CCl)cc1Cl] | 46% | 19% | -15.859 | -15.859
6 | O=C(CCl)Nc1cc2c(cc1Cl)OCO2 [PCM-0102209, O=C(CCl)Nc1cc2c(cc1Cl)OCO2] | 27% | 13% | -16.385 | -16.385
7 | COc1cc(Cl)c(C)cc1NC(=O)CCl [PCM-0102210, COc1cc(Cl)c(C)cc1NC(=O)CCl] | 25% | 0% | -15.971 | -15.971
8 | Cc1nnc(NC(=O)CCl)s1 [PCM-0102211, Cc1nnc(NC(=O)CCl)s1] | 0% | 0% | -15.999 | -15.999
9 | CC(NC(=O)CCl)c1ccc(Cl)cc1Cl (centres unmarked) [PCM-0102212, CC(NC(=O)CCl)c1ccc(Cl)cc1Cl] | 18% | 54% | -16.295 | -16.295
10 | O=C(CCl)N1CCN(c2ccccn2)CC1 [PCM-0102213, O=C(CCl)N1CCN(c2ccccn2)CC1] | 0% | 0% | -15.928 | -15.928
11 | Cc1cc(Cl)ccc1NC(=O)CCl [PCM-0102214, Cc1cc(Cl)ccc1NC(=O)CCl] | 39% | 8% | -16.385 | -16.385
12 | CC1CCN(C(=O)CCl)c2ccccc2S1 (centres unmarked) [PCM-0102216, CC1CCN(C(=O)CCl)c2ccccc2S1] | 0% | 32% | -16.224 | -16.224
13 | O=C(CCl)Nc1ccc(F)c(Cl)c1 [PCM-0102217, O=C(CCl)Nc1ccc(F)c(Cl)c1] | 14% | 0% | -15.473 | -15.473
14 | O=C(Nc1ccccc1)C1CCN(C(=O)CCl)CC1 [PCM-0102219, O=C(Nc1ccccc1)C1CCN(C(=O)CCl)CC1] | 0% | 0% | -15.089 | -15.089
15 | CS(=O)(=O)c1ccc(Cl)c(NC(=O)CCl)c1 [PCM-0102220, CS(=O)(=O)c1ccc(Cl)c(NC(=O)CCl)c1] | 0% | 5% | -15.663 | -15.663
16 | CNC(=O)C1CN(C(=O)CCl)c2ccccc2O1 (centres unmarked) [PCM-0102221, CNC(=O)C1CN(C(=O)CCl)c2ccccc2O1] | 15% | 0% | -15.966 | -15.966
17 | N#CC(c1cccs1)N1CCN(C(=O)CCl)CC1 (centres unmarked) [PCM-0102223, N#CC(c1cccs1)N1CCN(C(=O)CCl)CC1] | 0% | 0% | -15.143 | -15.143
18 | Cc1ccc(-n2nc(C)cc2NC(=O)CCl)cc1 [PCM-0102224, Cc1ccc(-n2nc(C)cc2NC(=O)CCl)cc1] | 35% | 0% | -16.116 | -16.116

Row | Structure (SMILES) | OTUB2 % labeling [1] | NUDT7 % labeling [2] | ln(avg k) [3, 4] | ln(avg k) [3, 5]
19 | CC(NC(=O)CCl)c1ccc(F)cc1 (centres unmarked) [PCM-0102228, CC(NC(=O)CCl)c1ccc(F)cc1] | 20% | 7% | -15.820 | -15.820
20 | CC1(NC(=O)CCl)CCS(=O)(=O)C1 (centres unmarked) [PCM-0102230, CC1(NC(=O)CCl)CCS(=O)(=O)C1] | 0% | 0% | -16.090 | -16.090
21 | CCc1nc(NC(=O)CCl)sc1C [PCM-0102231, CCc1nc(NC(=O)CCl)sc1C] | 0% | 33% | -15.238 | -15.238
22 | O=C(CCl)Nc1ccccc1[N+](=O)[O-] [PCM-0102232, O=C(CCl)Nc1ccccc1[N+](=O)[O-]] | 20% | 24% | -15.562 | -15.562
23 | O=C(CCl)Nc1nc(-c2c[nH]c3ccccc23)cs1 [PCM-0102233, O=C(CCl)Nc1nc(-c2c[nH]c3ccccc23)cs1] | 25% | 26% | -15.707 | -15.707
24 | COc1ccccc1NC(=O)CCl [PCM-0102236, COc1ccccc1NC(=O)CCl] | 28% | 0% | -16.359 | -16.359
25 | O=C(CCl)N1CCN(S(=O)(=O)c2ccc(F)cc2)CC1 [PCM-0102237, O=C(CCl)N1CCN(S(=O)(=O)c2ccc(F)cc2)CC1] | 0% | 6% | -16.014 | -16.014
26 | O=C(CCl)Nc1ccc(F)c([N+](=O)[O-])c1 [PCM-0102238, O=C(CCl)Nc1ccc(F)c([N+](=O)[O-])c1] | 32% | 23% | -15.369 | -15.369
27 | O=C(CCl)N1CCN(c2cccc(C(F)(F)F)c2)CC1 [PCM-0102239, O=C(CCl)N1CCN(c2cccc(C(F)(F)F)c2)CC1] | 0% | 8% | -15.673 | -15.673
28 | O=C(CCl)N1CCN(S(=O)(=O)c2cccs2)CC1 [PCM-0102241, O=C(CCl)N1CCN(S(=O)(=O)c2cccs2)CC1] | 0% | 12% | -15.262 | -15.262
29 | O=C(CCl)Nc1nccs1 [PCM-0102242, O=C(CCl)Nc1nccs1] | 0% | 0% | -16.213 | -16.213
30 | O=C(CCl)N1CCN(Cc2cccs2)CC1 [PCM-0102243, O=C(CCl)N1CCN(Cc2cccs2)CC1] | 0% | 8% | -15.851 | -15.851
31 | NC(=O)C1CN(C(=O)CCl)c2ccccc2O1 (centres unmarked) [PCM-0102245, NC(=O)C1CN(C(=O)CCl)c2ccccc2O1] | 15% | 12% | -15.513 | -15.513
32 | O=C(CCl)Nc1cc(F)ccc1C(=O)O [PCM-0102247, O=C(CCl)Nc1cc(F)ccc1C(=O)O] | 0% | 0% | -16.882 | -16.882
33 | Cc1ccc(C)c(-n2nc(C)cc2NC(=O)CCl)c1 [PCM-0102249, Cc1ccc(C)c(-n2nc(C)cc2NC(=O)CCl)c1] | 43% | 0% | -15.689 | -15.689
34 | O=C(CCl)NC1CCCC1 [PCM-0102250, O=C(CCl)NC1CCCC1] | 0% | 0% | -16.419 | -16.419
35 | CC1CCC(C#N)(N(C)C(=O)CCl)CC1 (centres unmarked) [PCM-0102251, CC1CCC(C#N)(N(C)C(=O)CCl)CC1] | 0% | 5% | -15.448 | -15.448
